Data on two molecules can be found in patent publication US20180153931A1 (Aventis Pharma S.A., priority 2011, published 2018).

Series [1] deals with colon adenocarcinoma C51. As to the kind of experiment: Antitumor efficacy against colon adenocarcinoma C51 grafted in BALB/c mice (T/C, T-C, log cell kill).
Procedure: This efficacy may be quantified, for example, by the log10 cell kill, which is determined according to the following formula:
A product is considered to be active if log10 cell kill is greater than or equal to 0.7. A product is considered to be very active if log10 cell kill is greater than or equal to 2.8.
The combination will manifest therapeutic synergy when the log10 cell kill is greater than the value of the log10 cell kill of the best constituent administered alone at its maximum tolerated dose (by at least 1 log cell kill).
The efficacy of the combinations on solid tumors may be determined experimentally in the following manner:
The animals subjected to the experiment, generally mice, are subcutaneously grafted bilaterally with 30 to 60 mg of a tumor fragment on day 0. The animals are implanted with a murine tumor grafted in the syngenic strain of mice of origin of the tumor, or by a rodent or human tumor xenografted in immunocompromized mice. Some days post tumor implantation, mice are randomized according to their body weight to the different groups of treatments and controls. The animals are observed every day. […] The groups are then weighed once or twice a week until the end of the trial.
The tumors are measured 1 to 5 times a week, depending on the tumor doubling time, until the tumor reaches approximately 2 g, or until the animal dies (if this occurs before the tumor reaches 2 g). The animals are necropsied immediately after euthanasia or death.
Cabazitaxel was weighed for each treatment and dissolved in ethanol. Treatment solutions were prepared first by mixing 1 volume of ethanolic stock solution and 1 volume of polysorbate 80, then by adding 18 volumes of glucose 5% in water. Cabazitaxel was administered intravenously on days 5, 12 (or 13) after tumor implantation.
The tumors of treatment (T) and control (C) groups were measured when the median of control group reached approximately 750 to 1400 mg. The median tumor weight of each group was determined.
Antitumor efficacy was determined by calculating the T/C value in percent: T/C (%)=Median tumor weight of the Treated/control×100
A T/C <10% is considered to indicate high antitumor activity and is the level used by NCI to justify further development (Decision Network-2 level, DN-2).
To better quantify the antitumor activity, another end point, the log cell kill, was used:
The nature of series [2]: Phase I study: pharmacokinetics of cabazitaxel and cisplatin in patients. To be noted: cisplatin 75 mg/m^2 followed by cabazitaxel.
For series [3] the following is noted: cisplatin dose 75 mg/m^2; value given with 'previously reported'; cited from earlier work.
Series [4] is described as follows: Toxicity (drug death, body weight loss, HNTD) in C51 tumor-bearing BALB/c mice. Type of series: in vivo. The text has this: The animals are observed every day.
Toxicity was declared at dosages inducing≥20% body weight loss or≥10% drug death

[5] abbreviates: cisplatin alone 2.7 mg/kg/inj IV (total 5.4), days 5, 12.
The mark [6] stands for this setting: cabazitaxel alone 7.7 mg/kg/inj IV (total 15.4), days 5, 12.
Where [7] appears, read: cabazitaxel alone 12.4 mg/kg/inj IV (total 24.8), days 5, 12.
The mark [8] stands for this setting: cabazitaxel alone 20.0 mg/kg/inj IV (total 40.0), days 5, 12.
Setting [9] is: cabazitaxel alone 32.3 mg/kg/inj IV (total 64.6), days 5, 12.

As for `N.N.[Cl][Pt][Cl]` [cisplatin], in series [1] (setting [5]), the Comments entry was “Active”, the “T-C in days (750 mg)” value stood at 15.1 days, the “T/C in % on day 20” value is recorded as 2% and the “log10 cell kill gross” value was determined as 1.8. The “T-C in days (750 mg)” value in series [1] (cisplatin alone […] IV (total 8.6), days 5, 12) is on record as 22.1 days. Further, the “effect of cabazitaxel on the PK of cisplatin (total and free)” value in series [2] was “did not appear to alter”. For the same molecule, in series [3], the “AUClast, free platinum” value was 4170 ng·h/mL and the “AUClast, total platinum” value was 45 820 ng.h/mL.
For the molecule `CO[C@H]1C(=O)[C@]2(C)[C@@H](OC)C[C@H]3OC[C@@]3(OC(C)=O)[C@H]2[C@H](OC(=O)c2ccccc2)[C@]2(O)C[C@H](OC(=O)[C@H](O)[C@@H](NC(=O)OC(C)(C)C)c3ccccc3)C(C)=C1C2(C)C` [cabazitaxel, 4α-acetoxy-2α-benzoyloxy-5β,20-epoxy-1β-hydroxy-7β, 10β-dimethoxy-9-oxo-11-taxen-13α-yl (2R,3S)-3-tert-butoxycarbonylamino-2-hydroxy-3-phenylpropionate], the Comments result in series [1] (setting [6]) is on record as “Active”; in series [1] (setting [7]) it was “Active”; in series [1] (setting [8]), “HNTD active”; in series [4] (setting [9]), “Toxic (6/6 DD)”. Besides, the “T-C in days (750 mg)” value worked out at 11.0 days in series [1] (setting [6]), 11.7 days in series [1] (setting [7]) and 15.2 days in series [1] (setting [8]). Also, the “T/C in % on day 20” value is listed as 5% in series [1] (setting [6]), 3% in series [1] (setting [7]) and 0% in series [1] (setting [8]). The “log10 cell kill gross” value in series [1] (setting [6]) is recorded as 1.3; in series [1] (setting [7]), 1.4; in series [1] (cabazitaxel alone 20.0 mg/kg/inj IV (total 40.0), days 5, 12 (HNTD)), 1.8. Further, the Drug death in series [4] (setting [6]) is given as 0/6; in series [4] (setting [7]) it was 0/6; in series [4] (setting [8]), 0/6; in series [4] (setting [9]), 6/6. Moreover, the “% Body weight change at nadir” value is given as −6.8% in series [4] (cabazitaxel alone 7.7 mg/kg/inj IV (total 15.4), days 5, 12, nadir day 9); −8.1% in series [4] (cabazitaxel alone 12.4 mg/kg/inj IV (total 24.8), days 5, 12, nadir day 9); −14.6% in series [4] (cabazitaxel alone 20.0 mg/kg/inj IV (total 40.0), days 5, 12, nadir day 19). The “highest nontoxic dose (HNTD)” value in series [4] (cabazitaxel alone IV, days 5, 12 (total injected dose 40 mg/kg)) is 20 mg/kg/inj.
